Experimental data as given in patent US6030940A, “Peptide analog inhibitors of urokinase receptor activity” (Chiron Corporation, priority 1997, dated 2000).
Several values for one entry are separate records, joined by “and”; a condition that tells them apart may be missing. Equal entries are not always repeated. Where two headings read alike, the source gives them in different places. Square brackets hold non-standard residues; d marks the D form. Ends that are not written are not given here. Peptide text beside a SMILES is read from it. 1Nal = N[C@@H](Cc1cccc2ccccc12)C(=O)O

Assays:
soluble uPAR = biological target: T1, soluble uPAR (Homo sapiens, UniProt Q03405); experiment: 125I-ATF competition binding to immobilized soluble uPAR (Activity Assay); details: competition with iodinated human uPA ATF tracer (100-500 pM), 2h at room temperature, PBS/0.1% BSA, triplicate
T1 construct: Purified soluble uPAR was biotinylated
T1 sequence (Q03405 23-305 limits assumed): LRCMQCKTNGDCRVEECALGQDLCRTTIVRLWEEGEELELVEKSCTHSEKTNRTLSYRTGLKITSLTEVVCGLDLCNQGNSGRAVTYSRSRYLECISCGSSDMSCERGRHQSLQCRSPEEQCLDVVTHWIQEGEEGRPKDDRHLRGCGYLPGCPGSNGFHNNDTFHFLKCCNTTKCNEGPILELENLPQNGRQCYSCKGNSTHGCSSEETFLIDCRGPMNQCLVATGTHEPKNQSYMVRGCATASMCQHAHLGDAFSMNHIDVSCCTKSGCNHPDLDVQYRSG
From the text: Purified soluble uPAR was biotinylated with NHS-biotin (Molecular Probes) and immobilized at 0.3 Tg/mL in phosphate-buffered saline (PBS)/0.1% BSA on streptavidin-coated Immulon-2 96-well Removawell plates. Human uPA N-terminal fragment (ATF; from M. Shuman, University of California, San Francisco) was iodinated by the Iodo-Gen method (Pierce). Unincorporated ^125 I was separated from labeled protein by Sephadex G-25 chromatography. The specific activity of the labeled protein was between 5×10^5 and 1×10^6 […]. The iodinated tracer (100-500 pM) was incubated with the peptides prepared in Example 1 triplicate for 2h at room temperature in PBS/0.1% BSA in a total volume of 200 TL. The plates were washed with PBS/0.1% BSA 3X, and remaining bound radioactivity was measured on an LKB 1277 Gammamaster. Scatchard analysis was performed by using the LIGAND program (Biosoft, Milltown, N.J.).

uPAR = uPAR (Homo sapiens, UniProt Q03405); details: E. Appella et al., J Biol Chem (1987), cited from earlier work
Sequence of uPAR (Q03405 23-335): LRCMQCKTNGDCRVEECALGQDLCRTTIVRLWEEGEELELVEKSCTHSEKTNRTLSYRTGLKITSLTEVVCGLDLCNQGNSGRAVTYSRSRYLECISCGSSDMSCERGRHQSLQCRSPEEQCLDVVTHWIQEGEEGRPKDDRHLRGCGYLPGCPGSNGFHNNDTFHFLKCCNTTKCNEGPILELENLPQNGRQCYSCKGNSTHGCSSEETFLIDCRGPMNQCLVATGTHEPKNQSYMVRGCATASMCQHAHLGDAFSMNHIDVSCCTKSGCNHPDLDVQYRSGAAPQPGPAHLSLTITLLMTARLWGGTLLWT

[1] = test system: SaOS-2 osteosarcoma cell line; details: S. A. Rabbani et al.; cited from earlier work
[2] = U937 fibroblast cells; S. A. Rabbani et al.; cited from earlier work

Compound	IC50 (soluble uPAR; read-out: IC50)	also measured
CC(C)C[C@H](NC(=O)[C@H](Cc1ccc(O)cc1)NC(=O)[C@H](CS)NC(=O)[C@@H](CO)NC(=O)[C@H](Cc1ccccc1)NC(=O)[C@H](CS)NC(=O)[C@@H](N)CC(C)C)C(=O)N[C@@H](Cc1c[nH]c2ccccc12)C(=O)N[C@@H](Cc1ccc(O)cc1)C(=O)N[C@H](C(=O)O)[C@@H](C)O [SEQ ID NO: 9, LCFdSCYLWYT] (H-LCF[dS]CYLWYT-OH)	9 nM and 23 nM	
CC(C)C[C@H](NC(=O)[C@H](Cc1ccc(O)cc1)NC(=O)[C@H](CS)NC(=O)[C@@H](CO)NC(=O)[C@H](Cc1ccccc1)NC(=O)[C@H](CS)NC(=O)[C@@H](N)CC(C)C)C(=O)N[C@@H](Cc1cccc2ccccc12)C(=O)N[C@@H](Cc1ccc(O)cc1)C(=O)N[C@H](C(=O)O)[C@@H](C)O [SEQ ID NO: 10, LCFdSCYLnAYT] (H-LCF[dS]CYL[1Nal]YT-OH)	79 ± 10 nM	
CC(C)C[C@H](NC(=O)[C@H](Cc1ccc(O)cc1)NC(=O)[C@H](CCC(N)=O)NC(=O)CNC(=O)[C@H](Cc1ccccc1)NC(=O)[C@H](CC(N)=O)NC(=O)[C@@H](N)CC(C)C)C(=O)N[C@@H](Cc1cccc2ccccc12)C(=O)N[C@@H](Cc1ccc(O)cc1)C(=O)N[C@H](C(=O)O)[C@@H](C)O [SEQ ID NO: 4, LNFGQYLnAYT] (H-LNFGQYL[1Nal]YT-OH)		IC50 (soluble uPAR; IC50 (nM)): 7 nM and 6 nM
CC(C)C[C@H](NC(=O)[C@H](Cc1ccc(O)cc1)NC(=O)[C@H](CCC(N)=O)NC(=O)CNC(=O)[C@H](Cc1ccccc1)NC(=O)[C@H](CC(N)=O)NC(=O)[C@@H](N)CC(C)C)C(=O)N[C@@H](Cc1c[nH]c2ccccc12)C(=O)N[C@@H](Cc1ccc(O)cc1)C(=O)N[C@H](C(=O)O)[C@@H](C)O [SEQ ID NO: 1, LNFGQYLWYT] (H-LNFGQYLWYT-OH)	41 ± 17 nM	
CC(C)C[C@H](NC(=O)[C@H](Cc1ccc(O)cc1)NC(=O)[C@H](CS)NC(=O)[C@@H](CO)NC(=O)[C@H](Cc1ccccc1)NC(=O)[C@H](CC(N)=O)NC(=O)[C@@H](N)CC(C)C)C(=O)N[C@@H](Cc1c[nH]c2ccccc12)C(=O)N[C@@H](CS)C(=O)N[C@H](C(=O)O)[C@@H](C)O [SEQ ID NO: 11, LNFdSCYLWCT] (H-LNF[dS]CYLWCT-OH)	225 ± 40 nM	
CC(C)C[C@H](NC(=O)[C@H](Cc1ccc(O)cc1)NC(=O)[C@H](CCC(N)=O)NC(=O)[C@@H](CO)NC(=O)[C@H](Cc1ccccc1)NC(=O)[C@H](CC(N)=O)NC(=O)[C@@H](N)CC(C)C)C(=O)N[C@@H](Cc1c[nH]c2ccccc12)C(=O)N[C@@H](Cc1ccc(O)cc1)C(=O)N[C@H](C(=O)O)[C@@H](C)O [SEQ ID NO: 5, LNFdSQYLWYT] (H-LNF[dS]QYLWYT-OH)	7 nM and 11 nM	
CC(C)C[C@H](NC(=O)[C@H](Cc1ccc(O)cc1)NC(=O)[C@H](CCC(N)=O)NC(=O)[C@@H](CO)NC(=O)[C@H](Cc1ccccc1)NC(=O)[C@H](CC(N)=O)NC(=O)[C@@H](N)CC(C)C)C(=O)N[C@@H](Cc1cccc2ccccc12)C(=O)N[C@@H](Cc1ccc(O)cc1)C(=O)N[C@H](C(=O)O)[C@@H](C)O [SEQ ID NO: 7, LNFdSQYLnAYT] (H-LNF[dS]QYL[1Nal]YT-OH)	33 ± 3 nM	
uPA12-32: The critical domain alone, residues 12-32 of the uPA EGF-like domain (DCLNGGTCVSNKYFSNIHWCN; UniProt P00749 32-52, looked up, fragment)		affinity relative to intact ATF (fold less) (uPAR): about 100 fold; Kd (uPAR; read-out: affinity for uPAR): 40 nM
fucosylated EGF-like domain: fucosylated EGF-like domain (uPA4-43, produced by cleavage from pro-uPA) (LHQVPSNCDCLNGGT(Fuc)CVSNKYFSNIHWCNCPKKFGGQHCE; cysteine pairing not given here; UniProt P00749 24-63, looked up, fragment)		mitogenic activity [1]: mitogenic; mitogenic activity [2]: Neither fucosylated nor non-fucosylated EGF-like domain was mitogenic
CC(C)C[C@H](NC(=O)[C@H](Cc1ccc(O)cc1)NC(=O)[C@@H](CS)NC(=O)CNC(=O)[C@H](Cc1ccccc1)NC(=O)[C@H](CC(N)=O)NC(=O)[C@@H](N)CC(C)C)C(=O)N[C@@H](Cc1c[nH]c2ccccc12)C(=O)N[C@@H](CS)C(=O)N[C@H](C(=O)O)[C@@H](C)O [SEQ ID NO: 8, LNFGdCYLWCT] (H-LNFG[dC]YLWCT-OH)	8 nM and 14 nM	
